Structures are written as SMILES.

A short description of this series: Human HepG2 cell viability assay in 384 well format. In kind it is toxicity, cell-based. The arrangement: dose 125 nL, time 70.5 hour; cytotoxicity at 70.5 h: concentration not given beside the values. To be noted: HepG2 cells, read-out: Inhibition.
`O=C(NC1(c2nnn(CC3CCCO3)n2)CCCC1)c1ccccc1` (stereo not drawn): the cytotoxicity at 70.5 h was -4.54%. As for `O=C(NC1(c2nnn(CC3CC3)n2)CCCC1)c1ccccc1`, the figure is -7.63%; as for `CC(C)Sc1nnnn1C1CCCC1`, -9.93%. As for `CCCOC(=O)C(C)Sc1nnnn1C1CCOCC1` (stereo not drawn), the figure is -2.83%.

Turning to `Cc1ccc(N2CCCC(N(C)Cc3ccccn3)C2)nn1` (stereo not drawn), the cytotoxicity at 70.5 h was -10.3%. As to `CS(=O)(=O)NCCC(=O)N1CCCC1c1noc(C2CC2)n1` (stereo not drawn), the cytotoxicity at 70.5 h was -11.1%. As for `Cc1cc(NC(=O)C2CN(Cc3ccccc3)CCO2)ccn1` (stereo not drawn), the figure is 13%. As for `NC(=O)C1CCCN1Cc1cccc(NC(=O)c2cc(Cl)cc(Cl)c2)c1` (stereo not drawn), the figure is -15.9%; as for `Cc1cc(S(=O)(=O)N2CCCc3cc(F)c(F)cc32)sc1C(=O)O`, -1.45%; as for `Cc1cc(S(=O)(=O)N2CCCc3ccccc32)sc1C(=O)O`, -12.2%. As to `CC(C)NC(=O)CCN1CCCC1c1cccc2c1OCCO2` (stereo not drawn), the cytotoxicity at 70.5 h was -8.96%.

With `COc1ccc(-n2cnnc2SCC(=O)N(C)C(C)C)cn1`, the cytotoxicity at 70.5 h was -6.69%.

As for `CCc1nc(CCNC(=O)Nc2ccc(C(=O)NC)cc2)cs1`, the cytotoxicity at 70.5 h is -1.4%. The same measure for `Cc1cccc(NC(=O)[C@@H]2CCCN2CC(=O)Nc2ccccc2)n1`: -6.38%; for `CCCS(=O)(=O)N1CCC(NC(=O)c2cc3ccccc3s2)CC1`: -6.56%; for `NS(=O)(=O)N1CCC(C(=O)Nc2cccc(OC(F)F)c2)CC1`: 1.39%. The same measure for `NC(=O)C(NC(=O)Cc1cnn(-c2ccccc2)n1)c1ccccc1` (stereo not drawn): -0.915%.

Turning to `CCC(=O)NCC(=O)NCC1(c2c(F)cccc2F)CCCC1`, the cytotoxicity at 70.5 h is -4.06%.

With `CC(=O)N(C)CC(=O)NCC1(c2c(F)cccc2F)CCCC1`, the cytotoxicity at 70.5 h turned out to be 0.534%. As for `O=C(Nc1nnc(N2CCCCC2)[nH]1)c1cccs1`, the figure is -0.727%; as for `Cc1occc1CNC(=O)C1(C)CCCN1C(=O)c1ccccc1` (stereo not drawn), 2.74%; as for `CCCNC(=O)CCNC(=O)N1CCc2c(F)ccc(F)c2C1`, 3.2%. As for `O=C(Cc1cnn(-c2ccccc2)n1)NC(C1CC1)C1CC1`, the figure is 0.511%; as for `COC(=O)CCCNC(=O)N1CCc2c(F)ccc(F)c2C1`, -1.47%; as for `CCn1cc(CNc2ccc(F)c(N3CCCS3(=O)=O)c2)cn1`, 0.531%.

On to `Cc1occc1CNC(=O)C1(C)CCCN(C(=O)c2ccccc2)C1` (stereo not drawn), for which the cytotoxicity at 70.5 h was 0.298%.

Take `Cc1cc(=O)n(C)cc1NC(=O)Cc1cccc(F)c1`: the cytotoxicity at 70.5 h was -2.92%. As for `CC(NCC1CCN(CCO)CC1)c1ccc(C(F)(F)F)cc1` (stereo not drawn), the figure is 14%; as for `CC(C)(C)CCCC(=O)NS(=O)(=O)CC1CC1`, -0.428%.

Regarding `CC(C)(CO)CCCNC(=O)N1CCc2c(F)ccc(F)c2C1`, the cytotoxicity at 70.5 h is -2.98%.

In the case of `CC(C)c1ocnc1C(=O)N1CCCC(c2ccn[nH]2)C1` (stereo not drawn), the cytotoxicity at 70.5 h is -3.87%. For `Cc1nc2n(n1)CC(NCC(=O)NCC1(c3ccccc3)CC1)CC2` (stereo not drawn), the cytotoxicity at 70.5 h was -3.45%. With `Cn1ccnc1CNc1ccc(F)c(N2CCCS2(=O)=O)c1`, the cytotoxicity at 70.5 h came to 0.314%. In the case of `OC(CN(Cc1ccccc1)Cc1ccncc1)c1ccco1` (stereo not drawn), the cytotoxicity at 70.5 h came out at 26%.

As for `OC[C@@H](O)CN(CCC(F)(F)F)c1ncccn1`, the cytotoxicity at 70.5 h turned out to be 5.67%. As for `OC(CN(Cc1ccccc1)Cc1ccon1)c1ccco1` (stereo not drawn), the figure is -7.07%; as for `CCCN1CCCN(CCCOc2cccc(C#N)c2)CC1`, -1.9%.

In the case of `CCn1c(CN(C)C(=O)c2ccc(N(C)C)nc2)nc2ccccc21`, the cytotoxicity at 70.5 h was -14%.

Consider `CC(C)(C)C(=O)N1CCN(CCOc2cccc(C#N)c2)CC1`, for which the cytotoxicity at 70.5 h is -5.91%. For the compound `CCn1c(CNC(=O)c2ccc(N(C)C)nc2)nc2ccccc21`, the cytotoxicity at 70.5 h was -8.62%. As for `Cc1cc(C)c2c(c1)C(NC(=O)CSc1nnc[nH]1)CCO2` (stereo not drawn), the cytotoxicity at 70.5 h came to 10.8%. As for `CN(Cc1cccs1)c1nc2c(cnn2C(C)(C)C)c(=O)[nH]1`, the figure is -6.5%; as for `Cc1nc(-c2ccsc2)sc1C(=O)N1CCn2c(C)nnc2C1`, -0.696%; as for `CCC(Nc1ccc(Oc2ccccc2OC)cc1)C(N)=O` (stereo not drawn), -4.77%. Regarding `CCC(Nc1cccc(Oc2ccc(C#N)cc2)c1)C(N)=O` (stereo not drawn), the cytotoxicity at 70.5 h was -4.69%. As to `Cc1nc(CN(C)c2nc3c(cnn3C(C)(C)C)c(=O)[nH]2)cs1`, the cytotoxicity at 70.5 h is 8.98%. As for `Cc1cccc(S(=O)(=O)NC(=O)c2ccc3c(c2)nnn3C)c1`, the cytotoxicity at 70.5 h was -5.75%.

For the compound `CC1(C(=O)Nc2ccc(F)c(-n3cccc3)c2)CCOCC1`, the cytotoxicity at 70.5 h was -6.66%. As for `Cc1cc(C(=O)NC2CCN(C(=O)Nc3cccnc3)CC2)c(C)o1`, the figure is -9.09%; as for `Cc1cnc(C(C)(C)NC(=O)NCc2cccnc2OC(C)C)s1`, 2.79%; as for `CN(C(=O)CNc1ccc(C#N)cc1)C1CCCCC1`, -3.87%. Turning to `Cc1cc(C(=O)N(C)CC(F)(F)C(F)(F)F)ccc1-n1cncn1`, the cytotoxicity at 70.5 h stood at 2.03%. The same measure for `Cc1nnc(CN(C)CCOc2cccc(Cl)c2)o1`: -10.9%.

Turning to `COc1ccc(C)cc1CN(Cc1nc(C)c(C)o1)C1CCN(C)C1` (stereo not drawn), the cytotoxicity at 70.5 h worked out at 3.17%.

Turning to `CCn1c(CN(C)C(=O)c2ccc(O)nc2)nc2ccccc21`, the cytotoxicity at 70.5 h was -5.75%. As for `COCCN(Cc1cnn(C)c1)Cc1ccc(C)o1`, the figure is -9.85%; as for `Cc1nnc(CN(C)CCCOc2cccc(Cl)c2)o1`, 0.527%; as for `CS(=O)(=O)NC1CCN(C(=O)COCc2ccccc2)CC1`, 18.3%. The same measure for `CC(C)(C)Cc1noc2ncc(C(=O)N3CCSCC3)cc12`: -7.45%; for `O=C(CCS(=O)(=O)C1CCCC1)NCCc1cccc(O)c1`: 19.9%. As for `CC1CN(C)CCN1C(=O)c1cnc2onc(CC(C)(C)C)c2c1` (stereo not drawn), the figure is -8.98%. With `CC(C)(C)C(O)CN1CCN(Cc2nccn2CC(F)(F)F)CC1` (stereo not drawn), the cytotoxicity at 70.5 h stood at 17.5%. With `CCc1nnc2n1CCN(C(=O)c1cnc(-c3cccs3)s1)C2`, the cytotoxicity at 70.5 h was -7.22%. On to `CC(O)C1CCN(Cc2nccn2CC(F)(F)F)CC1` (stereo not drawn), for which the cytotoxicity at 70.5 h was -7.97%. The same measure for `CN(C)C(CNC(=O)c1ncoc1-c1ccccc1)c1ccsc1` (stereo not drawn): -11.1%; for `COC(=O)C(C)(C)C(C)(C)NC(=O)Nc1nnc(-c2ccccn2)s1`: -10.6%. As for `Cc1cccc(C2CCCN2C(=O)CCS(C)(=O)=O)c1C` (stereo not drawn), the figure is 18.6%; as for `CCCS(=O)(=O)NC(=O)c1sc(C2CCCC2)nc1C`, -3.78%; as for `Nc1c(Cl)cnn1C1CCN(Cc2ccccc2)C1` (stereo not drawn), -3.84%. The same measure for `CNS(=O)(=O)CC(=O)N(Cc1c(F)cccc1Cl)C1CC1`: -7.68%; for `COCc1noc(-c2nn(-c3ccccc3F)c3c2CCC3)n1`: -6.39%. Take `CS(=O)(=O)CCCSCc1ccc(Br)c(F)c1`: the cytotoxicity at 70.5 h is -1.93%. For `CNC(=O)c1sc(C2CCCC2)nc1C`, the cytotoxicity at 70.5 h was -5.12%. For `O=C(NCc1ccco1)Nc1ccc2nc(N3CCOCC3)oc2c1`, the cytotoxicity at 70.5 h is -2.89%. The same measure for `CC(C)(C)Cc1noc2ncc(C(=O)N3CCC3)cc12`: -6.81%.

In the case of `Cc1cc(NC(=O)N(Cc2ccc(C#N)cc2)C(C)C)no1`, the cytotoxicity at 70.5 h is -13.2%. Consider `CCSc1ccc(C(C)NC(=O)CNS(C)(=O)=O)cc1` (stereo not drawn), for which the cytotoxicity at 70.5 h was -7.13%. The same measure for `O=C1CCCN1CC1CCCCN1C(=O)Nc1cccc(F)c1` (stereo not drawn): -14.6%; for `CC(=O)c1cccc(NC(=O)N2CCCCC2CN2CCCC2=O)c1` (stereo not drawn): -7.82%.

With `[O-][S+](CCN1CCc2[nH]nc(C(F)(F)F)c2C1)c1ccccc1` (stereo not drawn), the cytotoxicity at 70.5 h is -6.21%. The same measure for `CN(C)c1cc2c(nn1)CCN(C(=O)c1cc3ccccc3o1)C2`: -11.3%; for `CCNc1cc2c(nn1)CCN(C(=O)c1cc3ccccc3[nH]c1=O)C2`: -12.3%; for `CCC(=O)Nc1cc(Br)cnc1OCC(F)(F)F`: -8.98%. The same measure for `CCOc1cc(F)ccc1NC(=O)NCC(c1cnn(C)c1)N(C)C` (stereo not drawn): -0.683%. As for `CCOCc1ccccc1NC(=O)NCC(c1cnn(C)c1)N(C)C` (stereo not drawn), the figure is -5.82%; as for `Cn1c(C(=O)NS(C)(=O)=O)ccc1-c1ccccc1`, -6.29%; as for `Cc1ccc(C(NC(=O)Cc2nc3ncccn3n2)C2CC2)cc1` (stereo not drawn), -11.9%. Regarding `CNC(=O)c1ccc(-c2ccccc2)n1C`, the cytotoxicity at 70.5 h was -9.17%.

`Cc1nc(NC(=O)OC(C)(C)C)sc1C(N)=O`: the cytotoxicity at 70.5 h was -2.34%.

As for `CCN(CC)C(C(=O)Nc1ccc2c(c1)CCC(=O)N2)c1ccccc1` (stereo not drawn), the cytotoxicity at 70.5 h is -11.2%. The same measure for `c1ccc(CSc2nnc(C3CC3)s2)nc1`: -7.57%; for `CCCN(CCC)S(=O)(=O)N(C)Cc1ccncc1`: -12.4%; for `COCCN(CCOC)S(=O)(=O)N(C)Cc1ccncc1`: 19.1%.

In the case of `CC/C=C(/C)C(=O)NCc1ccnc(OC)c1`, the cytotoxicity at 70.5 h is -8.93%. The same measure for `CC(C)N(C)CCNC(=O)N(C)CC1CCOCC1`: -11.2%. Take `Cc1cc2n(n1)CC(CNCc1cnn(C)c1)CN2` (stereo not drawn): the cytotoxicity at 70.5 h was -15%. The same measure for `COc1c(CNCCC(=O)Nc2cccc(C)n2)c(C(C)C)nn1C`: 14.3%. The same measure for `CN1CCN(C(=O)CCCc2ccccn2)c2ccc(F)cc21`: 14.3%; for `Cc1ccc(N(C)CC(O)COCc2ccccc2)c(C)c1` (stereo not drawn): 12.5%; for `COc1c(NC(=O)N(C)CCOc2ccccc2)c(C)nn1C`: 15.1%. Consider `COCCOCC(=O)NCCCOC1CCCc2ccccc21` (stereo not drawn), for which the cytotoxicity at 70.5 h is 27.2%.

Regarding `Cc1noc(CNc2ccc(OC(F)F)cc2OC(F)F)n1`, the cytotoxicity at 70.5 h was -2.77%. The same measure for `COc1ccc(C(C)NCc2ccc(OC)c(OC)c2OC)cc1F` (stereo not drawn): 31.6%.
